Results published in ChEMBL document CHEMBL1147590, “Synthesis and antitumor activity of s-tetrazine derivatives” (Bioorg Med Chem Lett, 2004).

How the values were obtained:
[1] = tested on: P388; test: In vitro rate of inhibition of P388 tumor cell growth at 10E-5 mol/L; assay type: functional, Mus musculus; details: at 10 µM
[2] = tested on: P388; test: In vitro rate of inhibition of P388 tumor cell growth at 10E-4 mol/L; assay type: functional, Mus musculus; details: at 100 µM
[3] = tested on: A549; test: In vitro rate of inhibition of A-549 tumor cell growth at 10E-5 mol/L; assay type: functional, Homo sapiens; details: at 10 µM
[4] = tested on: P388; test: In vitro rate of inhibition of P388 tumor cell growth at 10E-7 mol/L; assay type: functional, Mus musculus; details: at 0.1 µM
[5] = tested on: P388; test: In vitro rate of inhibition of P388 tumor cell growth at 10E-8 mol/L; assay type: functional, Mus musculus; details: at 0.01 µM
[6] = tested on: P388; test: In vitro rate of inhibition of P388 tumor cell growth at 10E-6 mol/L; assay type: functional, Mus musculus; details: at 1 µM
[7] = tested on: A549; test: In vitro rate of inhibition of A-549 tumor cell growth at 10E-7 mol/L; assay type: functional, Homo sapiens; details: at 0.1 µM
[8] = tested on: A549; test: In vitro rate of inhibition of A-549 tumor cell growth at 10E-4 mol/L; assay type: functional, Homo sapiens; details: at 100 µM
[9] = tested on: A549; test: In vitro rate of inhibition of A-549 tumor cell growth at 10E-8 mol/L; assay type: functional, Homo sapiens; details: at 0.01 µM
[10] = tested on: A549; test: In vitro rate of inhibition of A-549 tumor cell growth at 10E-6 mol/L; assay type: functional, Homo sapiens; details: at 1 µM

SMILES | Rate of inhibition [1] [%] | Rate of inhibition [2] [%] | Rate of inhibition [3] [%] | Rate of inhibition [4] [%] | Rate of inhibition [5] [%] | Rate of inhibition [6] [%] | Rate of inhibition [7] [%] | Rate of inhibition [8] [%] | Rate of inhibition [9] [%] | Rate of inhibition [10] [%]
CCCCCCCCCCCCC/C=C/[C@@H](O)[C@H](CO)NC(C)=O | 4.7 | 73.4 | 9.2 | 3.1 | 0 | 3.1 | 7.7 | 24.6 | 12.3 | 6.2
CCCC1=NN(C(=O)Nc2cccc(C)c2)C(CCC)=NN1C(=O)Nc1cccc(C)c1 | 63.9 | 81.6 | 84.2 | 4.8 | 0 | 0 | 4 | 93.3 | 0 | 74.1
CC1=NN(C(=O)Nc2ccccc2C)C(C)=NN1C(=O)Nc1ccccc1C | 18.8 | 82.8 | 0 | 0 | 0 | 1.6 | 0 | 80 | 0 | 0
CCCOC(=O)N1N=C(C)N=NC1C (configuration not stated) | 13.5 | 34.8 | 11 | 8.7 | 5.2 | 9 | 0 | 16.7 | 0 | 0
CCOC(=O)N1C(c2ccccc2)=NN=C(c2ccccc2)N1C(=O)OCC | 35.6 | 93.9 | 10.8 | 4.9 | 2.8 | 7 | 0 | 95.3 | 0 | 0
CCCC1=NN(C(=O)Nc2ccccc2)C(CCC)=NN1C(=O)Nc1ccccc1 | 61.5 | 85.4 | 78.3 | 4.4 | 4.1 | 22.8 | 6.1 | 56.6 | 2.5 | 48.3
COC(=O)N1N=C(C)N=NC1C (configuration not stated) | 7.8 | 60.5 | 19.6 | 11.3 | 5.7 | 0 | 0 | 75.9 | 0 | 0
Clc1ccccc1-c1nnc(-c2ccccc2Cl)nn1 [CLOFENTEZINE] | 2.8 | 8.2 | 0 | 14.6 | 12.6 | 5.6 | 0 | 0 | 0 | 0
COc1cccc(NC(=O)N2N=C(C)N(C(=O)Nc3cccc(OC)c3)N=C2C)c1 | 93.8 | 95.3 | 86.2 | 95.2 | 92.2 | 93.8 | 89.2 | 87.7 | 86.2 | 84.6
Clc1ccc(Cc2nnc(Cc3ccc(Cl)cc3)nn2)cc1 | 29.1 | 58.4 | 57.1 | 8.9 | 0 | 9.3 | 1.1 | 65.8 | 8.7 | 13.1
CC1=NN(C(=O)Nc2cc(Cl)cc(Cl)c2)C(C)=NN1C(=O)Nc1cc(Cl)cc(Cl)c1 | 5.9 | 30.6 | 0 | 0 | 0 | 1.9 | 0 | 42 | 0 | 0
CC1=NN(C(=O)Nc2ccc(Cl)cc2)C(C)=NN1C(=O)Nc1ccc(Cl)cc1 | 14.8 | 50 | 14.8 | 7.4 | 0 | 1.9 | 7.4 | 53.4 | 0 | 1.9
CCC1NN(C(C)=O)C(CC)NN1C(C)=O (configuration not stated) | 0 | 38.9 | 9.7 | 0 | 0 | 0 | 2.9 | 47.5 | 0 | 10.1
CC1=NN(C(=O)OCc2ccccc2)C(C)N=N1 (configuration not stated) | 3 | 24.1 | 0 | 2.3 | 1 | 2 | 0 | 0 | 0 | 0
CCCCCOC(=O)N1N=C(CCC)N=NC1CCC (configuration not stated) | 7.7 | 32.8 | 0.7 | 0 | 0 | 5.6 | 0 | 0 | 2.5 | 2.3
CC1=NNC(C)N=N1 (configuration not stated) | 19.7 | 100 | 4.8 | 15.9 | 0 | 9.2 | 5.5 | 67.7 | 0 | 0
CC1=NN(C(=O)OCCC(C)C)C(C)N=N1 (configuration not stated) | 17.8 | 28.8 | 0 | 0.8 | 0 | 13.6 | 0 | 0 | 0 | 0
Cc1cccnc1-c1nnc(-c2ncccc2C)nn1 | 3.6 | 2.6 | 0 | – | – | – | – | 0 | – | –
CCOC(=O)c1cccc(NC(=O)N2N=C(C)N(C(=O)Nc3cccc(C(=O)OCC)c3)N=C2C)c1 | 0 | 46.3 | 12.5 | 0 | 0 | 0 | 5.7 | 67 | 1.1 | 6.8
CCCC1=NN(C(=O)OC)C(CCC)N=N1 (configuration not stated) | 17.3 | 90.4 | 0 | 1.7 | 3.3 | 4.5 | 0 | 59.6 | 0 | 0
CCCCC1NN(C(C)=O)C(CCCC)NN1C(C)=O (configuration not stated) | 0 | 37.9 | 13.1 | 0 | 0 | 0 | 4.8 | 47.6 | 0 | 6.4
CC1=NN(C(=O)NC2CCCCC2)C(C)=NN1C(=O)NC1CCCCC1 | 0 | 72.6 | 3.5 | 0 | 0 | 0 | 0 | 58.9 | 0 | 0
CC1=NN(C(=O)Nc2ccccc2)C(C)=NN1C(=O)Nc1ccccc1 | 90.6 | 89.1 | 77.9 | 87.5 | 81.3 | 90.6 | 60.3 | 76.5 | 50 | 79.4
CC1=NN(C(=O)Nc2cccc3ccccc23)C(C)=NN1C(=O)Nc1cccc2ccccc12 | 6.3 | 60.5 | 16.9 | 0 | 0 | 0 | 10 | 56.6 | 4.4 | 9.1
c1ccc(C2=NNC(c3ccccc3)=NN2)cc1 | 67.2 | 55.8 | 69 | 10.2 | – | 5.4 | 0 | 87.6 | – | 0
